According to US8778921B2, “Ansamycin hydroquinone compositions” (Infinity Pharmaceuticals, Inc., priority 2008, dated 2014):
Where a name gives a salt, the structure may show the parent alone.

Experiment: Stability at 40° C. and 75% relative humidity (percent purity by HPLC)
Assay type: physicochemical
Details: 40° C. and 75% RH; for Percent Purity of 17-AAG T = 0 Days / Percent Purity of 17-AAG T = 21 Days: Table 8; for Percent Purity of 17-FEAG T = 0 Days / Percent Purity of 17-FEAG T = 21 Days: Table 6; for Percent Purity of 17-BAG T = 0 Days / Percent Purity of 17-BAG T = 21 Days: Table 4
Method: As used herein, a “stable composition” refers a composition comprising a sulfur-containing compound and a baseline amount of the compound of formula (I) (e.g., such as percent purity as measured by HPLC) such that, after being subjected to standard stability conditions (e.g., 40° C. and 75% relative humidity) for a specified period of time (e.g., 1 day, 2 days, 3 days, 4 days, 5 days, 7 days, 14 days, 21 days, or 30 days), at least about 80% of the original amount of the compound of formula (I) remains in the composition (i.e., has not oxidized to a compound of formula (II) or degraded to other by-products). In certain embodiments, at least about 85%, at least about 90%, at least about 91%, at least about 92%, at least about 93%, at least about 94%, or at least about 95% of the original amount of the hydroquinone compound of formula (I) remains in the composition for a specified period of time (e.g., 1 day, 2 days, 3 days, 4 days, 5 days, 7 days, 14 days, 21 days, or 30 days).
The stability data for 17-AG-HQ of Example 2 when kept at 40° C. and 75% relative humidity (RH) is depicted in FIG. 8 (see Table 2 for tabulated stability data). It was observed that 17-AG-HQ of Example 2 completely oxidizes to its quinone form in two weeks at 40° C. and […] as determined by HPLC.

[1] = Table 14, formulations of 17-AG-HQ of Example 3
[2] = Table 15, NaHSO3/mineral oil formulation of 17-AG-HQ of Example 3

## C=CCNc1c(O)cc2c(O)c1C[C@@H](C)C[C@H](OC)[C@H](O)[C@@H](C)/C=C(\C)[C@H](OC(N)=O)[C@@H](OC)/C=C\C=C(/C)C(=O)N2 [17-AAG-HQ of Example 11B, 17-allylamino-geldanamycin hydroquinone]
T = 0 Days
  Percent Purity of 17-AAG T = 0 Days: 97%
T = 21 Days
  Percent Purity of 17-AAG T = 21 Days: 2%
Table 19, Example 11B Formulations, T = 0 Days
  Percent Purity of 17-AAG-HQ T = 0 Days: 97%
Table 19, Example 11B Formulations, T = 21 Days
  Percent Purity of 17-AAG-HQ T = 21 Days: 2%

## C=CCNc1c(O)cc2c(O)c1C[C@@H](C)C[C@H](OC)[C@H](O)[C@@H](C)/C=C(\C)[C@H](OC(N)=O)[C@@H](OC)/C=C\C=C(/C)C(=O)N2 [17-AAG-HQ of Example 11A, 17-allylamino-geldanamycin hydroquinone]
  stability over a period of time compared to 17-AAG-HQ of Example 11B: greater stability
T = 0 Days
  Percent Purity of 17-AAG T = 0 Days: 99%
T = 21 Days
  Percent Purity of 17-AAG T = 21 Days: 97%

## CO[C@H]1/C=C\C=C(/C)C(=O)Nc2cc(O)c(NCCF)c(c2O)C[C@@H](C)C[C@H](OC)[C@H](O)[C@@H](C)/C=C(\C)[C@@H]1OC(N)=O [17-FEAG-HQ of Example 10A, 17-(2-fluoroethylamino)-geldanamycin hydroquinone]
  stability over a period of time compared to 17-FEAG-HQ of Example 10B: greater stability
T = 0 Days
  Percent Purity of 17-FEAG T = 0 Days: 99%
T = 21 Days
  Percent Purity of 17-FEAG T = 21 Days: 96%

## CO[C@H]1/C=C\C=C(/C)C(=O)Nc2cc(O)c(NCc3ccccc3)c(c2O)C[C@@H](C)C[C@H](OC)[C@H](O)[C@@H](C)/C=C(\C)[C@@H]1OC(N)=O [17-BAG-HQ of Example 8B, 17-benzylamino-geldanamycin hydroquinone]
T = 0 Days
  Percent Purity of 17-BAG T = 0 Days: 98%
T = 21 Days
  Percent Purity of 17-BAG T = 21 Days: 11%
Table 17, Example 8B Formulations, T = 0 Days
  Percent Purity of 17-BAG-HQ T = 0 Days: 98%
Table 17, Example 8B Formulations, T = 21 Days
  Percent Purity of 17-BAG-HQ T = 21 Days: 11%

## CO[C@H]1/C=C\C=C(/C)C(=O)Nc2cc(O)c(N)c(c2O)C[C@@H](C)C[C@H](OC)[C@H](O)[C@@H](C)/C=C(\C)[C@@H]1OC(N)=O [17-AG-HQ of Example 6A, 17-amino-geldanamycin hydroquinone]
  stability over a period of time compared to 17-AG-HQ of Example 6B: greater stability
Table 2, T = 0 Days
  Percent Purity of 17-AG-HQ T = 0 Days: 97%
Table 2, T = 21 Days
  Percent Purity of 17-AG-HQ T = 21 Days: 83%

## CO[C@H]1/C=C\C=C(/C)C(=O)Nc2cc(O)c(NCCF)c(c2O)C[C@@H](C)C[C@H](OC)[C@H](O)[C@@H](C)/C=C(\C)[C@@H]1OC(N)=O [17-FEAG-HQ of Example 10B, 17-(2-fluoroethylamino)-geldanamycin hydroquinone]
T = 0 Days
  Percent Purity of 17-FEAG T = 0 Days: 97%
T = 21 Days
  Percent Purity of 17-FEAG T = 21 Days: 0%
Table 18, Example 10B Formulations, T = 0 Days
  Percent Purity of 17-FEAG-HQ T = 0 Days: 97%
Table 18, Example 10B Formulations, T = 21 Days
  Percent Purity of 17-FEAG-HQ T = 21 Days: 0%

## CO[C@H]1/C=C\C=C(/C)C(=O)Nc2cc(O)c(N)c(c2O)C[C@@H](C)C[C@H](OC)[C@H](O)[C@@H](C)/C=C(\C)[C@@H]1OC(N)=O [17-AG-HQ-HCl salt, 17-amino geldanamycin hydroquinone HCl Salt]
Table 2, T = 0 Days
  Percent Purity of 17-AG-HQ T = 0 Days: 99%
Table 2
  Percent Purity of 17-AG-HQ T = 14 Days: 88%
  Percent Purity of 17-AG-HQ T = 30 Days: 74%

## CO[C@H]1/C=C\C=C(/C)C(=O)Nc2cc(O)c(N)c(c2O)C[C@@H](C)C[C@H](OC)[C@H](O)[C@@H](C)/C=C(\C)[C@@H]1OC(N)=O [17-AG-HQ of Example 3, 17-amino-geldanamycin hydroquinone]
  stability over a period of time compared to 17-AG-HQ of Example 2: greater stability
Table 2, T = 0 Days
  Percent Purity of 17-AG-HQ T = 0 Days: 97%
Table 2, T = 2 Days
  Percent Purity of 17-AG-HQ T = 2 Days: 93%
Table 2
  Percent Purity of 17-AG-HQ T = 5 Days: 91%
  Percent Purity of 17-AG-HQ T = 14 Days: 87%
  Percent Purity of 17-AG-HQ T = 30 Days: 79%
Table 2, T = 21 Days
  Percent Purity of 17-AG-HQ T = 21 Days: 81%
Table 14, formulations of 17-AG-HQ of Example 3, T = 0 Days
  Percent Purity of 17-AG-HQ T = 0 Days: 97%
[1]
  Percent Purity of 17-AG-HQ T = 5 Days: 91%
  Percent Purity of 17-AG-HQ T = 14 Days: 87%
Table 14, formulations of 17-AG-HQ of Example 3, T = 21 Days
  Percent Purity of 17-AG-HQ T = 21 Days: 81%
Table 15, NaHSO3/mineral oil formulation of 17-AG-HQ of Example 3, T = 0 Days
  Percent Purity of 17-AG-HQ T = 0 Days: 97%
[2]
  Percent Purity of 17-AG-HQ T = 5 Days: 91%
  Percent Purity of 17-AG-HQ T = 14 Days: 87%
Table 15, NaHSO3/mineral oil formulation of 17-AG-HQ of Example 3, T = 21 Days
  Percent Purity of 17-AG-HQ T = 21 Days: 81%

## CO[C@H]1/C=C\C=C(/C)C(=O)Nc2cc(O)c(N)c(c2O)C[C@@H](C)C[C@H](OC)[C@H](O)[C@@H](C)/C=C(\C)[C@@H]1OC(N)=O [17-AG-HQ of Example 5, 17-amino-geldanamycin hydroquinone]
  stability over a period of time compared to Examples 2, 3 and 4: greatest stability
Table 2, T = 0 Days
  Percent Purity of 17-AG-HQ T = 0 Days: 99%
Table 2
  Percent Purity of 17-AG-HQ T = 30 Days: 98%

## CO[C@H]1/C=C\C=C(/C)C(=O)Nc2cc(O)c(N)c(c2O)C[C@@H](C)C[C@H](OC)[C@H](O)[C@@H](C)/C=C(\C)[C@@H]1OC(N)=O [17-AG-HQ of Example 4, 17-amino-geldanamycin hydroquinone]
  stability over a period of time compared to Examples 2 and 3: greater stability
Table 2, T = 0 Days
  Percent Purity of 17-AG-HQ T = 0 Days: 99%
Table 2
  Percent Purity of 17-AG-HQ T = 30 Days: 97%

## CO[C@H]1/C=C\C=C(/C)C(=O)Nc2cc(O)c(NCc3ccccc3)c(c2O)C[C@@H](C)C[C@H](OC)[C@H](O)[C@@H](C)/C=C(\C)[C@@H]1OC(N)=O [17-BAG-HQ of Example 8A, 17-benzylamino-geldanamycin hydroquinone]
  stability over a period of time compared to 17-BAG-HQ of Example 8B: greater stability
T = 0 Days
  Percent Purity of 17-BAG T = 0 Days: 98%
T = 21 Days
  Percent Purity of 17-BAG T = 21 Days: 96%

## CO[C@H]1/C=C\C=C(/C)C(=O)Nc2cc(O)c(N)c(c2O)C[C@@H](C)C[C@H](OC)[C@H](O)[C@@H](C)/C=C(\C)[C@@H]1OC(N)=O [17-AG-HQ of Example 6B, 17-amino-geldanamycin hydroquinone]
Determined by HPLC
  time in which the hydroquinone completely oxidizes to its quinone form: 3 weeks
Table 2, T = 0 Days
  Percent Purity of 17-AG-HQ T = 0 Days: 97%
Table 2, T = 21 Days
  Percent Purity of 17-AG-HQ T = 21 Days: 13%
Table 16, Example 6B Formulations, T = 0 Days
  Percent Purity of 17-AG-HQ T = 0 Days: 97%
Table 16, Example 6B Formulations, T = 21 Days
  Percent Purity of 17-AG-HQ T = 21 Days: 13%
